From US20080096807A1, “Cyclic vasoactive intestinal peptide receptor-2 agonists” (priority 2006, published 2008)
Values belong to the molecule of their own block, whether it stands above or below them. Numbered stars: 1 amine (or outer) side, 2 acyl side, 3 side chain; on linkers, the order of the positions; unused ones are H or OH. Bridge positions count the residues as written; N and C are the ends. Square brackets hold non-standard residues; d marks the D form. Peptide text beside a SMILES is read from it. ξ: configuration not given here. X1 = N=C(N)CNCC[C@H](N[*:1])C(=O)[*:2]; Thr(3ξ) = CC(O)[C@H](N)C(=O)O; Nle = CCCC[C@H](N)C(=O)O

Legend:
[1] = system: LPS-induced lung inflammation in male C57BL/6 mice; test: LPS-induced lung inflammation in male C57BL/6 mice (BAL neutrophilia); type: in vivo; settings: BAL fluid neutrophilia
Method: C57bl/6 mice are pretreated with vehicle or drug prior to an aerosol expose to lipopolysacchride (LPS, 500 μg/ml in sterile saline) for 15-30 minutes. The aerosol is generated by a Pari Ultra neb jet nebulizer, the outlet of which is connected to a small clear plastic chamber [H×W×D, 10.7×25.7×11 cm (4×10×4.5 in)] containing the animals. Bronchoalveolar lavage (BAL) is performed 24 hr later to determine the intensity of cell inflammation. BAL procedure is performed as described below.
Mice are pretreated with vehicle or drug prior to an intranasal administration of lipopolysacchride (0.05-0.3 mg/kg in sterile saline; 50 μl total volume, 25 μl/nostril). Intranasal administration is performed by presenting small droplets of the dosing solution at the nostril using a 25-50 μl eppendorff pipet. BAL is performed 3 to 24 h post LPS challenged as described above to determine the intensity of cell inflammation.
24 h following LPS exposure, animals are anesthetized with pentobarbital (80-100 mg/kg, i.p.), ketamine/xyzaline (80-120 mg/kg/2-4 mg/kg, i.p.) or urethane (1.5-2.4 g/kg, i.p.); and through a small midline neck incision (15-20 mm), the trachea is exposed and cannulated with 20-gauge tubing adapter. Lungs are lavaged with 2×1 ml sterile Hank's balanced salt solution without Ca++ and Mg++(HBSS). Lavage fluid is recovered after 30 sec by gentle aspiration and pooled for each animal. Samples are then centrifuged at 2000 rpm for 10 minutes at 5° C. Supernatant is aspirated, and red blood cells are lysed from the resulting pellet with 0.5 ml distilled water for 30 sec before restoring osmolarity to the remaining cells by the addition of 5 ml of HBSS. Samples are recentrifuged at 2000 rpm for 10 minutes at 5° C. and supernatant aspirated. The resulting pellet is resuspended in 1 ml of HBSS. Total cell number is determined by Trypan Blue (Sigma Chemical, St. Louis, Mo.) exclusion from an aliquot of cell suspension using a hemocytometer or coulter counter. For differential cell counts, an aliquot of the cell suspension is centrifuged in a Cytospin (5 min, 1300 rpm; Shandon Southern Instruments, Sewickley, Pa.) and the slides fixed and stained with a modified Wright's stain (Hema 3 stain kit, Fisher Scientific). Standard morphological criteria is used in classifying at least 300 cells under light microscopy. Data in Table 3 is expressed as BAL cells×10^4/animal for neutrophils and total cells, or percent inhibition of the LPS induced BAL fluid neutrophilia response.

VPAC2 receptor = biological target: T1, VPAC2 receptor (Homo sapiens, UniProt P41587); test: Sup-T1 cAMP agonist assay; type: cell-based; settings: human T-lymphoid cell line Sup-T1 expressing VPAC2 receptor; cAMP EIA; 5 min at room temperature; read-out: Sup-T1 cAMP EC50
T1 construct: The human T-lymphoid cell line Sup-Ti, which expresses the VPAC2 receptor; host or cells: Sup-T1 (Sup-Ti [sic]) human T-lymphoid cell line
T1 sequence (P41587 24-438): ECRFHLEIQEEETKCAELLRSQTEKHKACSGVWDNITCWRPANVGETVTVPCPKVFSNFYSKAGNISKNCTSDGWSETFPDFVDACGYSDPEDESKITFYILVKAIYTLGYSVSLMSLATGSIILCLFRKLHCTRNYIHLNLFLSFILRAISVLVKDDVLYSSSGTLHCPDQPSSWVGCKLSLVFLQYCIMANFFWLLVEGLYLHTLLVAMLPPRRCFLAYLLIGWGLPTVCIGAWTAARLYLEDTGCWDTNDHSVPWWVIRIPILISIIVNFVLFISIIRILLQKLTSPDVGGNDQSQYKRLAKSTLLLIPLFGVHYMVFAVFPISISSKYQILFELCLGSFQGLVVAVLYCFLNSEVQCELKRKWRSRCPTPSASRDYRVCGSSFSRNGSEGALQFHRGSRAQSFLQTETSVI
Method: The human T-lymphoid cell line Sup-Ti, which expresses the VPAC2 receptor, was obtained from the American Type Culture Collection (ATCC, CRL-1942) and maintained in growth medium at densities between 0.2 and 2×10^6 cells/ml in a 37° C. CO2 incubator. The growth medium was RPMI 1640 (Invitrogen) supplemented with 25 mM HEPES buffer and 10% fetal bovine serum (Gemini Bioproducts).
To evaluate VPAC2 agonist compound activity, cells in log-phase growth were washed once with growth medium at room temperature and plated into 96-well plates at a density of 4×10^4 cells per well in 150 uL of growth medium. Fifty uL of the compounds to be tested, prepared at appropriate concentrations in growth medium, were then added to designated wells. After 5 min at room temperature, the cells were lysed by adding 25 uL of lysis reagent 1A (cAMP Biotrak EIA system, Amersham Biosciences, RPN225) to each well. The 96-well plates were kept at room temperature for 10 min with shaking and then stored at 4° C. until analysis for cAMP (within 2 hr).
Cyclic AMP levels were determined in 100 uL of each lysate using the cAMP Biotrak Enzymeimmunoassay (EIA) kit according to the manufacture's instructions (Amersham Biosciences, RPN225). The activity of each VPAC2 agonist compound (EC50 value) was estimated by fitting the 7-concentration dose response data to a sigmoidal dose-response equation provided by the GraphPad Prism program (GraphPad Software, Inc.).

[2] = biological target: T2, human neutrophil elastase (Homo sapiens, UniProt P08246); test: Peptide stability to neutrophil elastase (RP HPLC ESI MS); settings: halftime with human neutrophil elastase 1 to 2 μg/mL in PBS, ambient temperature, normalized to halftime of the reference standard
T2 sequence (P08246 30-247 limits assumed): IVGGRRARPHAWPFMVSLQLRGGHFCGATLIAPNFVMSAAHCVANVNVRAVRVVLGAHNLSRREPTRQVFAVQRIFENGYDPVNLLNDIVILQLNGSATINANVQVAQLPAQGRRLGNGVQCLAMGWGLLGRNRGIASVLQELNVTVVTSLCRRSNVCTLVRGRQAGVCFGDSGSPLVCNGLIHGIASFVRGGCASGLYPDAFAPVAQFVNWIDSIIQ
Method: The proteolytic stabilities of peptide analogs were established with reversed phase high pressure liquid chromatography (RP HPLC) electrospray ionization mass spectrometry (ESI MS). Peptide analogs were incubated with human neutrophile elastase and the quantity of undigested analogs was determined by ESI MS at appropriate time points. Multiple peptide analogs could be included in one experiment as long as they could be differentiated by HPLC retention time and/or by molecular weight. Ac-His Ac-[sequence]Nle-[sequence]NH2 was used in all experiments as a control and as a reference standard. The simultaneous use of multiple peptide analogs together with a reference standard allowed for compensation for variations in the proteolytic fidelity of the enzyme over the multiple experiments. Integrated ion currents obtained for the individual undigested peptide were used for quantitation. For calculation of halftime first-order kinetic behavior was assumed and all calculations were normalized to the halftime of the reference standard.
Peptide stock solutions were prepared in water to a concentration of 2.5 mg/mL. Unless in use, all stock solutions were kept at −20° C. […] Concentrations of the peptide analogs were adjusted accordingly. In order to do the proteolytic digestion, peptides were dissolved in phosphate buffered saline (PBS) to a concentration of 0.1 mg/mL. As many as six different peptide analogs were mixed into one 50 μL reaction volume. The reference standard was added to all experiments as a reference and internal standard. Elastase (Human Neutrophil, Calbiochem, Cat # 324681) was added from an elastase stock solution to a concentration of 1 to 2 μg/mL. Different amounts of the enzyme were chosen to compensate for the differences in the proteolytic stabilities of the peptide analogs. Previously, a stock solution of elastase was prepared in water at a concentration of 1 mg/mL. Small aliquots of the enzyme stock solution were kept at −20° C. to better maintain the enzyme activity by limiting the number of thaw and freeze cycles.
The digestion was done at ambient temperature in an autosampler tube within the autosampler of the HPLC system (Agilent 1100 Series). For a time course, 5 μL aliquots were injected in 70 minute intervals onto the reversed phase HPLC column (Phenomenex, Luna C18, 3μ, 100 ↑, 150×2.00 mm). For the starting time point an aliquot was injected just prior to the addition of the proteolytic enzyme. A total of eight time points could be recorded from one experiment, including the starting point. Peptides were separated on the reversed phase column with a 50 minute gradient of 5% to 30% organic phase. The aqueous phase was 0.05% (v/v) of trifluoroacetic acid in water and the organic one was 0.045% (v/v) of trifluoroacetic acid in acetonitrile. Absorbances were recorded at 214 and 280 nm respectively. All of the column effluent was introduced into the turbo V source of the electrospray ionization mass spectrometer (ABI 4000 QTrap LC/MS/MS System). Mass spectra were acquired in Q3MS mode in a mass range to include all triply charged ions of the non degraded peptide analogs. Care was taken to assure that peptide analogs could clearly be differentiated either by the chromatographic retention time or by the difference in molecular weight. Relative quantities of the respective undigested peptide analog were calculated from the integrated total ion current. A window of 2.5 Da was chosen and the manufacturer's software was used to integrate the individual ion currents. The overall halftime of an individual peptide analog was calculated by assuming first-order kinetic behavior and was normalized with respect to the halftime of the reference standard.

SMILES: CCCC[C@H](NC(=O)[C@H](CCC(N)=O)NC(=O)[C@H](CCCCN)NC(=O)[C@H](CCCNC(=N)N)NC(=O)[C@H](CC(C)C)NC(=O)[C@H](CCCCN)NC(=O)[C@@H](NC(=O)[C@H](Cc1ccc(O)cc1)NC(=O)[C@H](CC(N)=O)NC(=O)[C@H](CCC(=O)O)NC(=O)[C@@H](NC(=O)[C@H](Cc1ccccc1)NC(=O)[C@H](CO)NC(=O)[C@H](C)NC(=O)[C@H](CC(=O)O)NC(=O)[C@H](CO)NC(=O)[C@H](Cc1c[nH]cn1)NC(C)=O)C(C)O)C(C)O)C(=O)N[C@@H](CCCCN)C(=O)N[C@@H](C)C(=O)N[C@@H](CCCCN)C(=O)N[C@H]1CCCCNC(=O)C[C@@H](C(=O)N[C@@H](CC(C)C)C(=O)N[C@@H](CCCCN)C(=O)N[C@@H](CCCCN)C(=O)NCC(=O)NCC(=O)N[C@H](C(N)=O)C(C)O)NC(=O)[C@H](CC(N)=O)NC(=O)[C@H](CC(C)C)NC(=O)[C@H](Cc2ccc(O)cc2)NC1=O (stereo partly drawn) [Example 9] (Ac-HSDASF[Thr(3ξ)]ENY[Thr(3ξ)]KLRKQ[Nle]KAKKYLNDLKKGG[Thr(3ξ)]-NH2; lactam 21-25)
- Inhibition of LPS-induced neutrophilia ([1]; Dose 0.01%): + (+ 10-30%)
- EC50 (VPAC2 receptor): 1200 nM
- Relative elastase stability [2]: 12.0

SMILES: CCCC[C@H](NC(=O)[C@H](CCC(N)=O)NC(=O)[C@H](CCCCN)NC(=O)[C@H](CCCNC(=N)N)NC(=O)[C@H](CC(C)C)NC(=O)[C@H](CCCCN)NC(=O)[C@@H](NC(=O)[C@H](Cc1ccc(O)cc1)NC(=O)[C@H](CC(N)=O)NC(=O)[C@H](CCC(=O)O)NC(=O)[C@@H](NC(=O)[C@H](Cc1ccccc1)NC(=O)[C@H](CO)NC(=O)[C@H](C)NC(=O)[C@H](CC(=O)O)NC(=O)[C@H](CO)NC(=O)[C@H](Cc1c[nH]cn1)NC(C)=O)C(C)O)C(C)O)C(=O)N[C@@H](C)C(=O)N[C@@H](C)C(=O)N[C@@H](CCCCN)C(=O)N[C@H]1CCCCNC(=O)C[C@@H](C(=O)N[C@@H](CC(C)C)C(=O)N[C@@H](CC(C)C)C(=O)N[C@@H](CC(N)=O)C(=O)NCC(=O)NCC(=O)N[C@H](C(N)=O)C(C)O)NC(=O)[C@H](CC(N)=O)NC(=O)[C@H](CC(C)C)NC(=O)[C@H](Cc2ccc(O)cc2)NC1=O (stereo partly drawn) [Example 11] (Ac-HSDASF[Thr(3ξ)]ENY[Thr(3ξ)]KLRKQ[Nle]AAKKYLNDLLNGG[Thr(3ξ)]-NH2; lactam 21-25)
- Inhibition of LPS-induced neutrophilia ([1]; Dose 0.01%): ++ (++ >30%)
- EC50 (VPAC2 receptor): 16.8 nM
- Relative elastase stability [2]: 2.4

SMILES: CCCC[C@H](NC(=O)[C@H](CCNCC(=N)N)NC(=O)[C@H](CCCCN)NC(=O)[C@H](CCCNC(=N)N)NC(=O)[C@H](CC(C)C)NC(=O)[C@H](CCCCN)NC(=O)[C@@H](NC(=O)[C@H](Cc1ccc(O)cc1)NC(=O)[C@H](CC(N)=O)NC(=O)[C@H](CCC(=O)O)NC(=O)[C@@H](NC(=O)[C@H](Cc1ccccc1)NC(=O)[C@H](CO)NC(=O)[C@H](C)NC(=O)[C@H](CC(=O)O)NC(=O)[C@H](CO)NC(=O)[C@H](Cc1c[nH]cn1)NC(C)=O)C(C)O)C(C)O)C(=O)N[C@@H](C)C(=O)N[C@@H](C)C(=O)N[C@@H](CCCCN)C(=O)N[C@H]1CCCCNC(=O)C[C@@H](C(=O)N[C@@H](CC(C)C)C(=O)N[C@@H](CCCCN)C(=O)N[C@@H](CCCCN)C(=O)NCC(=O)NCC(=O)N[C@H](C(N)=O)C(C)O)NC(=O)[C@H](CC(N)=O)NC(=O)[C@H](CC(C)C)NC(=O)[C@H](Cc2ccc(O)cc2)NC1=O (stereo partly drawn) [Example 13] (Ac-HSDASF[Thr(3ξ)]ENY[Thr(3ξ)]KLRK[X1][Nle]AAKKYLNDLKKGG[Thr(3ξ)]-NH2; lactam 21-25)
- Inhibition of LPS-induced neutrophilia ([1]; Dose 0.01%): ++ (++ >30%)
- EC50 (VPAC2 receptor): 17.6 nM
- Relative elastase stability [2]: 1.7

The remaining molecules from weak to strong by EC50 (VPAC2 receptor), led by results:

- EC50 (VPAC2 receptor): 447 nM
- Relative elastase stability [2]: 7.4
SMILES: CCCC[C@H](NC(=O)[C@H](C)NC(=O)[C@H](CCCCN)NC(=O)[C@H](CCCNC(=N)N)NC(=O)[C@H](CC(C)C)NC(=O)[C@H](CCCCN)NC(=O)[C@@H](NC(=O)[C@H](Cc1ccc(O)cc1)NC(=O)[C@H](CC(N)=O)NC(=O)[C@H](CCC(=O)O)NC(=O)[C@@H](NC(=O)[C@H](Cc1ccccc1)NC(=O)[C@H](CO)NC(=O)[C@H](C)NC(=O)[C@H](CC(=O)O)NC(=O)[C@H](CO)NC(=O)[C@H](Cc1c[nH]cn1)NC(C)=O)C(C)O)C(C)O)C(=O)N[C@@H](CCC(=O)O)C(=O)N[C@@H](C)C(=O)N[C@@H](CCCCN)C(=O)N[C@H]1CCCCNC(=O)C[C@@H](C(=O)N[C@@H](CC(C)C)C(=O)N[C@@H](CCCCN)C(=O)N[C@@H](CCCCN)C(=O)NCC(=O)NCC(=O)N[C@H](C(N)=O)C(C)O)NC(=O)[C@H](CC(N)=O)NC(=O)[C@H](CC(C)C)NC(=O)[C@H](Cc2ccc(O)cc2)NC1=O (stereo partly drawn) [Example 10] (Ac-HSDASF[Thr(3ξ)]ENY[Thr(3ξ)]KLRKA[Nle]EAKKYLNDLKKGG[Thr(3ξ)]-NH2; lactam 21-25)
- Inhibition of LPS-induced neutrophilia ([1]; Dose 0.01%): ++ (++ >30%)

- EC50 (VPAC2 receptor): 11.4 nM
- Relative elastase stability [2]: 3.5
SMILES: CCCC[C@H](NC(=O)[C@H](CCC(N)=O)NC(=O)[C@H](CCCCN)NC(=O)[C@H](CCCNC(=N)N)NC(=O)[C@H](CC(C)C)NC(=O)[C@H](CCCCN)NC(=O)[C@@H](NC(=O)[C@H](Cc1ccc(O)cc1)NC(=O)[C@H](CC(N)=O)NC(=O)[C@H](CCC(=O)O)NC(=O)[C@@H](NC(=O)[C@H](Cc1ccccc1)NC(=O)[C@H](CO)NC(=O)[C@H](C)NC(=O)[C@H](CC(=O)O)NC(=O)[C@H](CO)NC(=O)[C@H](Cc1c[nH]cn1)NC(C)=O)C(C)O)C(C)O)C(=O)N[C@@H](C)C(=O)N[C@@H](C)C(=O)N[C@@H](CCCCN)C(=O)N[C@H]1CCCCNC(=O)C[C@@H](C(=O)N[C@@H](CC(C)C)C(=O)N[C@@H](CC(C)C)C(=O)N[C@@H](CCCCN)C(=O)NCC(=O)NCC(=O)N[C@H](C(N)=O)C(C)O)NC(=O)[C@H](CC(N)=O)NC(=O)[C@H](CC(C)C)NC(=O)[C@H](Cc2ccc(O)cc2)NC1=O (stereo partly drawn) [Example 8] (Ac-HSDASF[Thr(3ξ)]ENY[Thr(3ξ)]KLRKQ[Nle]AAKKYLNDLLKGG[Thr(3ξ)]-NH2; lactam 21-25)
- Inhibition of LPS-induced neutrophilia ([1]; Dose 0.1%): ++ (++ >30%)
